Assay results published in publication PMC6368337, “GluClR-mediated inhibitory postsynaptic currents reveal targets for ivermectin and potential mechanisms of ivermectin resistance” (PLoS Pathogens, 2019).

Legend:
αβ (1:50) GluClRs = αβ (1:50) GluClRs (Haemonchus contortus, UniProt O46124+P91730); assay: Two-electrode voltage clamp in oocytes, αβ (1:50) GluClRs; type: cell-based, H. contortus
Description: (§1) cDNAs encoding the α (avr-14b) (pcDNA 3.1+) or β (pUNIV) GluClR subunits of H. contortus were nuclear injected into oocytes (NASCO, WI USA) or transfected into HEK293AD cells (CellBank Australia) using a calcium phosphate-DNA co-precipitate method. Synapse formation between neurons and HEK293 cells was promoted by co-transfecting neuroligin 2A or 1B and the cDNA encoding CD4 surface antigen was also added to the transfection mixture so as to identify transfected cells. The oocytes and HEK cells were used for experiments 2–3 days after the introduction of the cDNAs. All experiments were done at room temperature (22 ± 1°C).
(§2) Xenopus laevis oocytes were harvested by surgical incision. The oocytes were then defolliculated with 1.5 mg/ml collagenase for 2 hours. Free oocytes were rinsed with calcium-free OR-2 solution containing (in mM) 82.5 NaCl, 2 KCl, 1 MgCl2, 5 HEPES, pH 7.4 and mature stage V or VI oocytes were isolated for experiments. The DNAs coding for α and β subunits were nuclear injected into the oocytes using a Nanoliter 2000 microinjector (WPI Inc) at a ratio of (α:β), 1:0, 0:1, 1:1 and 1:50. The total amount of injected DNA in all combinations was 400 ng ml^−1, including the 1:50 (α:β) combination (8 ng of DNA encoding the α and 392 ng of DNA encoding β subunits). Injected oocytes were incubated in ND96 storage solution (in mM) 96 NaCl, 2 KCl, 1 MgCl2.6H2O, 1.8 CaCl2, 5 HEPES, 50 μg ml^−1 gentamicin, 2.5 sodium pyruvate, 0.5 theophylline, pH 7.4 at 16°C for 2–3 days before experiment.
(§3) For the two-electrode voltage clamp recordings, each oocyte was secured in a cell bath that was continually perfused with ND96 recording solution (ND96 storage solution without pyruvate, theophylline and gentamicin). […] The two microelectrodes contained 3 M KCl and had resistances of 0.2–2 MΩ. Recordings were done using Clampex 10.2 software (Molecular Devices) at a clamped voltage of −40 mV. Currents were low-pass filtered at 200 Hz, sampled at 2 kHz using a Gene Clamp 500B amplifier and digitised by a Digidata 1440A interface. The IVM (IVM B1a) concentration-response experiments were standardised by using an application protocol that consisted of applying increasing concentrations of IVM for, respectively, 3 min, 3 min, 3 min, 2 min, 1 min, 1 min and 0.5 min.
(§4) Group data were analysed in SigmaPlot 13.0 using one-way ANOVAs, where p < 0.05 was taken as the significance threshold and expressed as mean ± SEM. Tests for normally distributed data are built into the SigmaPlot software. Confocal images were captured and analysed with Zen 2012 SP2 (Zeiss) software. Oocyte concentration-response data were fit to a Hill equation to obtain an EC50 and Hill co-efficient for each oocyte recording. These parameters were then averaged across multiple oocyte experiments of the same type. Single channel recordings were analysed in QuB software. […] The selected critical times eliminated periods of receptor desensitisation while retaining singe receptor active periods. Mean active period duration and intra-activation open probability was estimated from each patch. Group means were obtained by averaging across multiple patches for each recording condition.

β GluClRs [1] = target: T1, β GluClRs (Haemonchus contortus, UniProt P91730); assay: Single channel recording, outside-out patches, β GluClRs; type: cell-based, H. contortus
Text: (§5) To explore whether a similar mechanism applies to β-containing GluClRs, we recorded single receptor currents in excised patches from cells transfected with either the α and β subunits (1:1) or the β subunit alone. […] By contrast, patches from cells transfected with the β subunit alone invariably opened to an amplitude of 0.4 pA (Fig 6C). Amplitude histograms confirmed two amplitude levels for αβ GluClRs and a single amplitude for the β GluClRs (Fig 6D). […] We infer that the αβ GluClRs that open to 0.7 pA likely contain a greater proportion of β subunits. This is consistent with β GluClRs having the smallest amplitude and α GluClRs having the greatest amplitude (1.8 pA) under similar recording conditions. The calculated conductance values for the corresponding amplitudes for αβ GluClRs was 15.2 pS and 8.9 pS and for the β GluClRs was 5.1 pS.
(§6) Single-channel currents were recorded from outside-out excised patches at a clamped potential of −70 mV. The single channel conductance was calculated by dividing the mean current by the net driving force at a clamped potential of ‐70 mV, after accounting for reversal and liquid junction potentials. Excised patches were continuously perfused via a gravity-fed double-barrelled glass tube, which contained extracellular bath solution containing (in mM), 140 NaCl, 5 KCl, 1 MgCl2, 2 CaCl2, 10 HEPES, and 10 D-glucose and titrated to pH 7.4. Glutamate and IVM were dissolved in this extracellular solution. Recording electrodes were pulled from borosilicate glass (G150F-3; Warner Instruments), coated with a silicone elastomer (Sylgard-184; Dow Corning) and heat-polished to a final tip resistance of 4–15 MΩ when filled with an intracellular solution containing (in mM) 145 CsCl, 2 MgCl2, 2 CaCl2, 10 HEPES, and 5 EGTA, pH 7.4. […] A 10 mM stock of IVM (Sigma-Aldrich) was dissolved in 100% DMSO and kept frozen at ‐20°C. Fresh working stocks of IVM at 5 nM were prepared by dissolving the appropriate quantity directly in extracellular solution. 100% DMSO when dissolved in extracellular solution alone at the same concentration as was present in working solutions containing 5 nM IVM had no effect on patches excised from cells transfected with GluClRs or from untransfected cells.
(§7) Currents were recorded using an Axopatch 200B amplifier (Molecular Devices), filtered at 5 kHz and digitized at 20 kHz using Clampex (pClamp 10 suite, Molecular Devices) via a Digidata 1440A digitizer.
(§8) Group data were analysed in SigmaPlot 13.0 using one-way ANOVAs, where p < 0.05 was taken as the significance threshold and expressed as mean ± SEM. Tests for normally distributed data are built into the SigmaPlot software. Confocal images were captured and analysed with Zen 2012 SP2 (Zeiss) software. Oocyte concentration-response data were fit to a Hill equation to obtain an EC50 and Hill co-efficient for each oocyte recording. These parameters were then averaged across multiple oocyte experiments of the same type. Single channel recordings were analysed in QuB software. […] Patches yielded between 30–250 individual active periods. […] The selected critical times eliminated periods of receptor desensitisation while retaining singe receptor active periods. Mean active period duration and intra-activation open probability was estimated from each patch. Group means were obtained by averaging across multiple patches for each recording condition.

β GluClRs [2] = target: T1, β GluClRs; assay: Two-electrode voltage clamp in oocytes, β GluClRs; type: cell-based, H. contortus; conditions: glutamate-gated current, oocytes
Description: as §1
Xenopus laevis oocytes were harvested by surgical incision. The oocytes were then defolliculated with 1.5 mg/ml collagenase for 2 hours. Free oocytes were rinsed with calcium-free OR-2 solution containing (in mM) 82.5 NaCl, 2 KCl, 1 MgCl2, 5 HEPES, pH 7.4 and mature stage V or VI oocytes were isolated for experiments. The DNAs coding for α and β subunits were nuclear injected into the oocytes using a Nanoliter 2000 microinjector (WPI Inc) at a ratio of (α:β), 1:0, 0:1, 1:1 and 1:50. […]
Group data were analysed in SigmaPlot 13.0 using one-way ANOVAs, where p < 0.05 was taken as the significance threshold and expressed as mean ± SEM. […] Confocal images were captured and analysed with Zen 2012 SP2 (Zeiss) software. […] Single channel recordings were analysed in QuB software. […]

αβ (1:1) GluClRs [3] = target: T2, αβ (1:1) GluClRs (Haemonchus contortus, UniProt O46124+P91730); assay: Single channel recording, outside-out patches, αβ (1:1) GluClRs; type: cell-based, H. contortus; conditions: for mean active period duration: −70 mV
Text: as §5, §6, §7, §8

α (avr-14b) GluClRs = α (avr-14b) GluClRs (Haemonchus contortus, UniProt O46124); assay: Two-electrode voltage clamp in oocytes, α GluClRs; type: cell-based, H. contortus
Description: as §1, §2, §3, §4

αβ (1:1) GluClRs [4] = target: T2, αβ (1:1) GluClRs; assay: Two-electrode voltage clamp in oocytes, αβ (1:1) GluClRs; type: cell-based, H. contortus; conditions: glutamate-gated current, oocytes, 1:1
Description: as §1, §2, §3
Group data were analysed in SigmaPlot 13.0 using one-way ANOVAs, where p < 0.05 was taken as the significance threshold and expressed as mean ± SEM. Tests for normally distributed data are built into the SigmaPlot software. Confocal images were captured and analysed with Zen 2012 SP2 (Zeiss) software. Oocyte concentration-response data were fit to a Hill equation to obtain an EC50 and Hill co-efficient for each oocyte recording. […] Single channel recordings were analysed in QuB software. […]

Lipophilicity (logP) = type: physicochemical
[5] = test system: Untransfected HEK293 cells; assay: Membrane partitioning, time-lapse fluorescence
Description: Two types of experiments were conducted with IVM-bdpy. The first was aimed at monitoring the time-course of membrane accumulation. Untransfected HEK293 cells were incubated in extracellular solution containing 500 nM IVM-bdpy and time-lapse images were taken over a period of 30 min (Fig 8A). The change in total membrane fluorescence averaged from 5 repeat experiments was then plotted against time and fitted to a standard exponential function (Fig 8B). In a control experiment, the corresponding accumulation rate was also determined for bdpy. To obtain the net membrane partitioning time-course for IVM-1, the data for the bdpy alone was subtracted from the data obtained for IVM-bdpy (Fig 8B). The time constants for the three plots were 6.5 min for the IVM-bdpy, 8.2 min for the bdpy fluorophore and 6.0 min for IVM-1. As the lipophilic properties of IVM and IVM-1 are similar (logPs of 5.4 and 5.1, respectively), we infer this analysis quantitatively reflects the membrane partitioning properties of IVM. […] It should be noted, however, that the IVM-bdpy experiment was done using a 100-fold higher concentration of drug in un-transfected cells and represents passive membrane accumulation, whereas the current plateau involved IVM binding to and activating receptors.
Membrane partitioning and FRAP experiments were performed on an LSM 710 inverted 2-photon confocal microscope equipped with a 40X water immersion objective lens (1.2 NA/280 μM WD/0.208 μM/pixel and a GFP/Alexa 488 filter set. Untransfected HEK293 cells at a confluency of 50–75% were plated onto 35-mm glass bottom dishes one day prior to experiments. The IVM-bdpy fluorophore was dissolved in 100% DMSO and stored at ‐20°C at a concentration of 24 mM.
A Mai Tai eHP 2-photon laser/760-1040 nm was used as an excitation source (power at 920 nm) for the FRAP experiments. The laser and bleaching power were set to 7% and 75% respectively. Membrane partitioning images were taken for 35 min at 0.5 Hz after replacing the cell medium (extracellular solution) with one containing the IVM-bdpy probe at a concentration of 500 nM. FRAP images were taken at a frequency of 0.5 Hz for 10 min after a 30 min equilibration period in 500 nM IVM-bdpy.

αβ (1:50) GluClRs, sequence (O46124 entry or part of it): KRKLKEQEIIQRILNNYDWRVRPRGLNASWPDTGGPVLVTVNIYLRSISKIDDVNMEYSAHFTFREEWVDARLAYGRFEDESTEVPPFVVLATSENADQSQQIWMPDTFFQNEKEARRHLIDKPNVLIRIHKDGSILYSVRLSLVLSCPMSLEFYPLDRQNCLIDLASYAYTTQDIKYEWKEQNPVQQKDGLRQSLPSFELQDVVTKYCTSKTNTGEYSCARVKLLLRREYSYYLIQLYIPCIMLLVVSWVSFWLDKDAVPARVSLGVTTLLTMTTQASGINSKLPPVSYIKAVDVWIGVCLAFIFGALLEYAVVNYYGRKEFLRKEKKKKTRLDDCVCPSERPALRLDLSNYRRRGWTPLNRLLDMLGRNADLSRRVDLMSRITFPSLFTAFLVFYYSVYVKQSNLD
αβ (1:50) GluClRs, sequence (P91730 19-432): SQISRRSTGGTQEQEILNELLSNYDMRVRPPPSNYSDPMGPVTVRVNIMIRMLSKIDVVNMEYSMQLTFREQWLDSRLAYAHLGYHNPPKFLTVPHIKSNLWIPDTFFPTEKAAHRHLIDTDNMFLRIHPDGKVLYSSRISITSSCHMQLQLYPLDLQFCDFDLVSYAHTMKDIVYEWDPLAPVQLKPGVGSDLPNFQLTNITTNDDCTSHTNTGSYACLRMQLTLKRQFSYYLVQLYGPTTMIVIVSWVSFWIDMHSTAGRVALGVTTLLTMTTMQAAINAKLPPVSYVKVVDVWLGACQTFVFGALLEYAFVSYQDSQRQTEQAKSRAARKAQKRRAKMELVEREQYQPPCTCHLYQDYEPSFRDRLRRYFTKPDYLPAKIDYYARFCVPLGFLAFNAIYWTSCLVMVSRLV
T2 sequence (P91730 19-432): as above
T2 sequence (O46124 entry or part of it): as the sequence (O46124 entry or part of it) above
T1 sequence (P91730 19-432): as the sequence (P91730 19-432) above
α (avr-14b) GluClRs, sequence (O46124 entry or part of it): as the sequence (O46124 entry or part of it) above

In the case of `N[C@@H](CCC(=O)O)C(=O)O` [Glutamate, L-glutamate], the maximal current (αβ (1:50) GluClRs; glutamate-gated current, oocytes, 1:50) is reported as 2.2 ± 0.4 μA, the “intra-activation open probability (PO)” value (β GluClRs [1]; 2 μM glutamate) is reported as 0.63 ± 0.07 and the “mean active period duration” value (β GluClRs [1]; 2 μM glutamate, −70 mV) is reported as 7.5 ± 1.8 ms. For the same compound, the “intra-activation open probability (PO)” value (β GluClRs [1]; 3 mM glutamate) was 0.70 ± 0.11, the “mean active period duration” value (β GluClRs [1]; 3 mM glutamate) was 164 ± 31 ms and the maximal current (β GluClRs [2]) was 1.9 ± 0.3 μA. For the same compound, the “intra-activation open probability (PO)” value (αβ (1:1) GluClRs [3]; 2 μM glutamate) was 0.54 ± 0.06, the “mean active period duration” value (αβ (1:1) GluClRs [3]; 2 μM glutamate, both stoichiometries pooled) was 40 ± 10 ms and the “intra-activation open probability (PO)” value (αβ (1:1) GluClRs [3]; 3 mM glutamate) was 0.83 ± 0.03. For the same compound, the “mean active period duration” value (αβ (1:1) GluClRs [3]; 3 mM glutamate, pooled) was 146 ± 15 ms, the maximal current (α (avr-14b) GluClRs; glutamate-gated current, oocytes) was 3.7 ± 0.8 μA and the maximal current (αβ (1:1) GluClRs [4]) was 2.0 ± 0.4 μA.
For `CC[C@H](C)[C@H]1O[C@]2(CC[C@@H]1C)C[C@@H]1C[C@@H](C/C=C(\C)[C@@H](O)[C@@H](C)/C=C/C=C3\CO[C@@H]4[C@H](O)C(C)=C[C@@H](C(=O)O1)[C@]34O)O2` [IVM-1], the logP (Lipophilicity (logP)) was 5.1, the “efficacy (maximal current normalised to saturating glutamate) compared to IVM” value (αβ (1:50) GluClRs; 30 nM, normalised to 5 mM glutamate, αβ 1:50) was “preservation of efficacy” and the “differential efficacy between α and αβ (1:50) GluClRs” value (αβ (1:50) GluClRs; 30 nM, α versus αβ (1:50)) was “retained differential efficacy”. For the same compound, the “net membrane partitioning time constant” value ([5]; bdpy data subtracted from IVM-bdpy data) was 6.0 min, the “time to plateau of membrane partitioning” value ([5]; subtraction plot (IVM-bdpy minus bdpy)) was 18 to 20 min and the “efficacy (maximal current normalised to saturating glutamate) compared to IVM” value (α (avr-14b) GluClRs; 30 nM, normalised to 5 mM glutamate) was “significantly less efficacious than IVM”.
